We go through five compounds from patent publication EP1161410B1, “RETINOID ANTAGONISTS AND USE THEREOF” (Basilea Pharmaceutica AG, priority 1999, dated 2000).

A short description of data set [1]: Effect on weight loss induced by all-trans retinoic acid in mice. The conditions noted are these: female mice.
Source text: Effect of retinoids with RXR antagonistic activity on weight loss induced by all-trans retinoic acid in mice.
The test compounds were solubilized/suspended in arachis oil and applied intraperitoneally into female mice (25/30 g) for 5 days a week during 2 weeks.
For data set [2], the system named is IL-12. Briefly: IL-12 production by PBMC primed with IFNγ and stimulated with SAC. Conditions: IFNγ+SAC alone 360. The format is cell-based, human. As to the method:
(§1) THP-1 cells were obtained from American Tissue Culture Collection and cultured in complete medium. To assay for IL-12 production, THP-1 cells, 1.25 x 10^6 cells/ml, were stimulated with S. aureus Cowan strain (SAC) (1/1000) and human recombinant interferon-γ (huIFN-γ (1000 U/ml) [Ma et al., J. Exp. Med. 183, 147-157 (1996)]. Alternatively, 0.5 x 10^6 human peripheral blood mononuclear cells (PBMC) (1 ml culture in 48 well plates) were primed with huIFN-γ (1000 U/ml) for 16 hours at 37°C, and then stimulated with SAC (1/1000). Supernatants were collected after 48 hours and freezed at -20 °C until assayed [Panina-Bordignon et al., J. Clin. Invest. 100, 1513-1519 (1997)].
(§2) IL-12 production was measured by specific enzyme linked immuno sorbant assay (ELISA), using 20C2 antibody (rat anti human IL-12 heterodimer p40-p35), at 2.5 µg/ml in coating buffer, and peroxidase-conjugated 4D6 antibody (rat anti human IL-12) at 250 ng/ml in assay buffer as described [Zhang et al., J. Clin. Invest. 93, 1733-1739 (1994)]. Standard (recombinant human IL-12, 800 pg/ml to 6 pg/ml) and samples (100 µl) diluted in assay buffer were added to duplicate wells. Absorbance was read at 450-650 nm. The unknown IL-12 concentrations of the samples were read from the corresponding standard curve and multiplied by the corresponding dilution factor. Maximal IL-12 production varied between 200 and 400 pg/ml.
(§3) Lyophilized retinoid antagonists were diluted in DMSO under yellow light, on ice at a concentration of 2 mM. Serial dilutions (1 µM-1 pM) were prepared in complete RPMI medium. 10 µl of each dilution was added to 1 ml culture.

For data set [3], the system named is TNF-α. Briefly: TNF-α production by activated monocytes (SAC + IFN-γ). The class given is cell-based, human. Conditions: SAC+IFN-γ alone 1840-2000 pg/ml.
For data set [4], the system named is IL-12. Put plainly: IL-12 production by THP-1 cells stimulated with IFNγ and SAC. The format is cell-based, human. Conditions: retinoid antagonist (1 µg) added at time 0 together with IFNγ, IFNγ+SAC alone 275. On the procedure: as §1, §2, §3
In data set [5] the test system is IL-10. Put plainly: IL-10 production by activated monocytes (SAC + IFN-γ). The format is cell-based, human. The conditions noted are these: SAC+IFN-γ alone 1040 pg/ml.
For data set [6], the system named is IL-12. Put plainly: IL-12 production by activated monocytes (SAC + IFN-γ), ELISA. The conditions noted are these: SAC+IFN-γ alone 120-126 pg/ml. The class given is cell-based, human. As to the method:
THP-1 cells were obtained from American Tissue Culture Collection and cultured in complete medium. […] Exp. Med. 183, 147-157 (1996)]. […] Supernatants were collected after 48 hours and freezed at -20 °C until assayed [[…]-Bordignon et al., J. Clin. Invest. 100, 1513-1519 (1997)]. […] Clin. Invest. 93, 1733-1739 (1994)]. […] Absorbance was read at 450-650 nm. The unknown IL-12 concentrations of the samples were read from the corresponding standard curve and multiplied by the corresponding dilution factor. […] Serial dilutions (1 μM-1 pM) were prepared in complete RPMI medium. 10 μl of each dilution was added to 1 ml culture.
Background: In an ELISA, binding on a coated surface is turned into a signal by an enzyme label.

Data set [7] has as its system neonatal mouse calvaria. Briefly: Bone resorption assay, calcium release from neonatal mouse calvaria in tissue culture. The class given is cell-based, Swiss albino mice. As to the method:
A series of agents are known to induce or stimulate bone resorption. In this assay retinoid antagonists were tested for their capacity to inhibit or counteract the bone resorptive activity of bone resorption inducers.
Bone resorption was determined by quantification of calcium release from neonatal mouse calvaria (skull bones) in a tissue culture system, into supernatant medium. Calvaria were prepared from 4 days old mice (body weight 4-4.5 g) of time controlled mated Swiss albino mice. Frontal and parietal calvarial parts were dissected under a stereo-microscope and halved along the median suture. Half calvaria from all animals were randomly distributed to 6-well culture dishes (NUNC), containing stainless steel grids to support the bones at the interface of gas and medium. The tissue is incubated in BGJ medium (Bioconcept, Switzerland) according to a specified formulation supplemented with 1 mg/ml BSA (bovine serum albumin, SIGMA). Calvaria were cultured at 37°C in humidified atmosphere of 5% CO2 and 95% air. After 24 hours of preincubation, they were transferred to new dishes containing 1.7 ml fresh medium and test substances. Bone resorption inducers and retinoid antagonists were tested either as single agents or in combination. The cultures were then run for 72 hours. Calcium concentrations in culture supernatants were measured immediately after each incubation period. Stable, free calcium was determined in 25 µl samples with a spectrophotometric method using a methylthymol blue containing kit (Biomérieux), (E.M. Gindler and J.D. King, Am. J. Clin. Pathol. 1972, 58, 376-382). The resorptive response was expressed as µg calcium released per half calvarium during 3 days treatment.
Additional tests were done to examine calcium remaining in the calvaria. Calcium was extracted with 5% trichloroacetic acid (TCA) and determined in 50 µl samples after neutralization with NaOH. Furthermore, bone tissue viability was determined to exclude cytotoxicity. This was quantified by the colorimetric MTT tetrazolium test (T. Mosmann, J. Immunol. Methods 1983, 65, 55-63).
Bone resorption induced by the various agents was determined by measuring the amount of calcium released from half calvaria into the supernatant medium. Calcium release is indicated in µg per half calvarium in 1.7 ml medium. Calcium release from calvaria into medium as well as uptake of calcium from medium into calvaria can be measured. Efficacy of retinoid antagonists to inhibit the activity of bone resorption inducers is expressed as % inhibition. It is calculated from the difference between the amount of released calcium by bone resorption inducers alone and the amount of released calcium by their combination with retinoid antagonists. Retinoid antagonists alone induce neither calcium release nor uptake. Basal resorption rate in vehicle controls was 5 or less than 5%.

Setting [8] is: A 200 mg/kg alone, intraperitoneally, n=2.
Where [9] appears, read: C 100 mg/kg + A 200 mg/kg, intraperitoneally, n=2.
[10] abbreviates: C 200 mg/kg + A 200 mg/kg, intraperitoneally, n=2.

As for `CCOc1c(\C(C)=C/C=C/C(C)=C/C(=O)O)cc(C(C)(C)C)cc1C(C)(C)C` [Compound A, (2E,4E,6Z)-7-(3,5-di-tert.butyl-2-ethaxyphenyl]-3-methyl-2,4,6-octatrienoic acid], in data set [1] (setting [8]), the “% survival after 14 days” value came to 100%, the “% weight change after 4 days” value is “+15%” and the “% weight change after 7 days” value is “+26%”. In addition, in data set [1] (setting [9]), the “% survival after 14 days” value is 100%, the “% weight change after 4 days” value is recorded as -13% and the “% weight change after 7 days” value is recorded as -8%. Besides, in data set [1] (setting [10]), the “% survival after 14 days” value came to 100%, the “% weight change after 4 days” value is reported as -23% and the “% weight change after 7 days” value is recorded as -23%.

`CC1(C)CCC(C)(C)c2cc3c(cc21)CCc1c(-c2ccc(C(=O)O)cc2)cn(Cc2cccnc2)c1-3` [Compound I, 4-(7,7,10,10-Tetramethyl-1-pyridin-3-ylmethyl-4,5,7,8,9,10-hexahydro-1H-naphto[2,3-g]indol-3-yl)-benzoic acid]: the entries for the “PBMC IL-12” value in data set [2] (retinoid antagonist (1 µg) added after 16 hours together with SAC) and in data set [2] (retinoid antagonist (1 µg) added at time 0 together with IFNγ) were 367 pg/mL and 371 pg/mL, respectively. Also, the figures for the TNF-α in data set [3] (antagonist 10 nM), in data set [3] (antagonist 100 nM) and in data set [3] (antagonist 1000 nM) were 2592 pg/mL, 2752 pg/mL and 2884 pg/mL, respectively. Also, in data set [4], the “THP-1 IL-12” value worked out at 364 pg/mL. In addition, the IL-10 in data set [5] (antagonist 10 nM) was found to be 971 pg/mL; in data set [5] (antagonist 100 nM), 983 pg/mL; in data set [5] (antagonist 1000 nM), 1116 pg/mL. Further, the IL-12 in data set [6] (antagonist 10 nM) was 173 pg/mL; in data set [6] (antagonist 100 nM) it was 205 pg/mL; in data set [6] (antagonist 1000 nM), 321 pg/mL.

In the case of `CC1=C(/C=C/C(C)=C\C=C\C(C)=C\C(=O)O)C(C)(C)CCC1` [Compound E, 9-cis retinoic acid], the “Calcium release per half calvarium” value in data set [7] (9-cis RA 0.01 μM alone, series of antagonist B) was found to be 3 ± 3 µg; in data set [7] (9-cis RA 0.01 μM alone, series of antagonist H), 6 ± 10 µg; in data set [7] (9-cis RA 0.1 μM alone, series of antagonist B), 17 ± 10 µg; in data set [7] (9-cis RA 0.1 μM alone, series of antagonist H) it was 22 ± 8 µg; in data set [7] (9-cis RA 1 μM alone, series of antagonist B), 18 ± 4 µg; in data set [7] (9-cis RA 1 μM alone, series of antagonist H) it was 40 ± 11 µg.

On to `CC1=C(/C=C/C(C)=C/C=C/C(C)=C/C(=O)O)C(C)(C)CCC1` [Compound C, all-trans retinoic acid], for which the “% survival after 14 days” value was determined as 20% in data set [1] (C 100 mg/kg alone, intraperitoneally, n=10) and 0% in data set [1] (C 200 mg/kg alone, intraperitoneally 5 days a week during 2 weeks, n=2). Further, the “Calcium release per half calvarium” value in data set [7] (all-trans RA 0.01 μM alone, series of antagonist B) turned out to be 1 ± 2 µg; in data set [7] (all-trans RA 0.01 μM alone, series of antagonist H), 1 ± 4 µg; in data set [7] (all-trans RA 0.1 μM alone, series of antagonist B), 13 ± 3 µg; in data set [7] (all-trans RA 0.1 μM alone, series of antagonist H), 19 ± 11 µg; in data set [7] (all-trans RA 1 μM alone, series of antagonist B), 17 ± 3 µg; in data set [7] (all-trans RA 1 μM alone, series of antagonist H) it was 23 ± 8 µg.

On to `C=C1/C(=C\C=C2/CCC[C@]3(C)[C@@H]([C@H](C)CCCC(C)(C)O)CC[C@@H]23)C[C@@H](O)C[C@@H]1O` [Calcitriol, 1,25-dihydroxyvitamin D3], for which the “Calcium release per half calvarium” value is on record as 4 ± 3 µg in data set [7] (Calcitriol 0.3 nM alone, 72 hours); 9 ± 4 µg in data set [7] (Calcitriol 1 nM alone, 72 hours); 13 ± 3 µg in data set [7] (Calcitriol 3 nM alone, 72 hours).
